Consider three compounds from patent US8071591B2, “7-cycloalkylaminoquinolones as GSK-3 inhibitors” (Kyorin Pharmaceutical Co., Ltd., priority 2009, dated 2011).

The structures appear in SMILES notation.

The subject of experiment [1] is HepG2 cells. In words: GS activation: [3H]glucose incorporation into glycogen in HepG2 cells. Type of experiment: cell-based. As to conditions: Homo sapiens, 3 hrs incubation with D-[2-3H]glucose, serum-free low-glucose DMEM, read-out: EC50 for glycogen synthesis. The procedure: HepG2 cells were obtained from the Japanese Collection of Research Bioresources and were grown in standard culture medium, a low-glucose Dulbecco's modified Eagle's medium (DMEM) containing 10% fetal calf serum supplemented with 100 U/mL penicillin and 100 μg/mL streptomycin, in a humidified and 5% CO2 atmosphere kept at 37° C. The HepG2 cells were harvested with 0.25% trypsin solution containing 1 mM EDTA, and were seeded on 12 well plates at 1×10^5 cells per well. Following a culture for 3 days, the cells were washed once with phosphate buffered saline (PBS), and were incubated with serum-free low-glucose DMEM supplemented with 100 U/mL penicillin and 100 μg/mL streptomycin. Following a culture for 3 hrs, GSK-3 inhibitor at various concentration and 2.5 μCi/mL D-[2-^3H]glucose (New England Nuclear, Boston, Mass., USA) were added to the serum-free low-glucose DMEM. A vehicle control of DMSO (0.3%, final concentration) was also used. Total volume per well of the reaction medium was 1.0 mL of serum-free low-glucose DMEM. After incubation at 37° C. for 3 hrs, medium was aspirated and cells were washed twice with PBS, and were added 0.25 mL of 1 N KOH containing 0.4 mg/mL carrier glycogen. […] [^3H]Glucose incorporation into glycogen was assessed using a liquid scintillation counter (Packard Instrument Co., Meriden, Conn., USA).

Experiment [2] has as its system Male Crlj:CD1 (ICR) mice. In words: Glucose tolerance study in fasted ICR mice. In kind it is in vivo. Particulars: 10 mg/kg orally, 30 minutes before oral glucose load (5 g/kg), fasted 7-week-old ICR mice. Here is the method:
Male Crlj:CD1 (ICR) mice were obtained from Charles River Laboratories Japan (Yokohama, Japan). All mice were given a standard diet (Clea Japan, Tokyo, Japan) and tap water ad libitum. All institutional guidelines for animal care and use were applied in this study. Test compounds were suspended in 0.3% carbozymethyl-cellulose sodium salt (CMC-Na; Sigma, St. Louis, Mo.). After fasting for 15-17 hours, the test compound (3, 10, 30, 100 or 300 mg/kg) or vehicle (0.3% CMC-Na) was orally administered to 7-week-old ICR mice. Glucose solution (5 g/kg) was orally administered at 30 minutes after test compound treatment. Blood samples were collected from tail vein using capillary tubes containing EDTA-2K before test compound treatment, and at 0, 0.5, 1, and 2 hours after glucose load. The blood samples were centrifuged at 2,500×g for 5 minutes and separated plasma was kept on ice and analyze in the same day. Plasma glucose levels were determined using the glucose CII-test (Wako Pure Chemical Industries, Osaka, Japan). The sum of plasma glucose levels at 0.5 and 1 hr after glucose load was compared to that of vehicle treatment, and results were presented as percent decrease.

In general, EC50 refers to the midpoint of the concentration-response curve.

Take `C[C@H]1COc2c(NC3CCCC(c4cccnc4)C3)c(F)c(N)c3c(=O)c(C#N)cn1c23` (stereo in doubt) [Example 9, (3S)-8-amino-9-fluoro-2,3-dihydro-3-methyl-7-oxo-10-[trans-3-(3-pyridyl)cyclohexylamino]-7H-pyrido[1,2,3-de][1,4]benzoxazine-6-carbonitrile]: in experiment [1], the 50% effective concentration (EC50) is not above 0.3 µM. For the compound `C[C@H]1COc2c(N[C@@H]3CC[C@@H](c4ccccn4)C3)c(F)c(N)c3c(=O)c(C#N)cn1c23` [Example 2, (3S)-8-amino-9-fluoro-2,3-dihydro-3-methyl-7-oxo-10-[(1R,3R)-3-(2-pyridyl)cyclopentylamino]-7H-pyrido[1,2,3-de][1,4]benzoxazine-6-carbonitrile], in experiment [2], the “percent decrease of the sum of plasma glucose levels at 0.5 and 1 hr after glucose load vs vehicle” value came out at 22%. With `C[C@H]1COc2c(N[C@H]3CC[C@H](c4cccnc4)CC3)c(F)c(N)c3c(=O)c(C#N)cn1c23` [Example 7, (3S)-8-amino-9-fluoro-2,3-dihydro-3-methyl-7-oxo-10-[trans-4-(3-pyridyl)cyclohexylamino]-7H-pyrido[1,2,3-de][1,4]benzoxazine-6-carbonitrile], the EC50 in experiment [1] is not above 0.3 µM.
